Test results from US12692253B2, “Antimicrobial compounds and methods” (Curza Global, LLC, priority 2019, dated 2026).

Key:
[1] = test system: E. coli S30 extract (bacterial protein synthesis); assay: E. coli S30 extract coupled transcription-translation luciferase assay (inhibition of bacterial protein synthesis); type: biochemical; conditions: class by IC50 or % inhibition @ 1 μM, read-out: S30 IC50 (μM/% inhib.)
Method: E. coli S30 extract: Inhibition of bacterial protein synthesis was determined using the E. coli S30 Extract System for Circular DNA (Promega catalog #L-2010) and Luciferase Assay Reagent (Promega catalog #E1500) with slight modifications to a published protocol. Fyfe, C., Sutcliffe, J. A. and Grossman, T. H. (2012) “Development and characterization of a Pseudomonas aeruginosa in vitro coupled transcription-translation assay system for evaluation of translation inhibitors” J. Microbiol. Methods 90(3), 256-261.
Compounds were serial diluted in 0.5 mL microcentrifuge tubes by mixing and transferring 50 μL from the highest concentration to 50 μL of water, mixing and transferring 50 μL of this 2-fold dilution to 50 μL of water. This mixing and transferring was repeated so that there are a total of 8 tubes with serial dilutions of compound at 10× the desired screening concentration that are ultimately diluted to 1× by the addition of S30 luciferase synthesis mixture. Serial dilutions of compounds were added (2 μL) to wells in a black round bottom 96-well plate. Water (2 μL) was used as a “no inhibitor” control in 4 wells/plate. No DNA control reaction mixture (20 μL; see below) was used as a control in 4 wells/plate for background luminescence. S30 luciferase synthesis mixture (18 μL; see below) was added to wells with compounds or water mixture and incubated at 37° C. for 1 hour. Reactions were stopped by transferring to 4° C. refrigerator for 5 minutes then 25 μL of luciferase activity mix was added. Luminescence was measured using a BioTek Synergy HTX plate reader. % Inhibition was determined relative to no inhibitor controls. • S30 luciferase synthesis mixture: • 445 μL S30 extract, circular • 712 μL S30 Premix without amino acids • 4.45 μL pBESTluc™ DNA (1 μg/μL) • 78 μL complete amino acid mixture • 267 μL water • No DNA control: • 20 μL S30 extract, circular • 32 μL S30 Premix without amino acids • 7 μL complete amino acid mixture • 21 μL water Rabbit Reticulocyte lysate

[2] = target: Rabbit Reticulocyte Lysate (eukaryotic protein synthesis); assay: Rabbit reticulocyte lysate luciferase assay (inhibition of eukaryotic protein synthesis); type: biochemical; conditions: class by IC50 or % inhibition @ 1 μM, read-out: Rabbit reticulocyte IC50 (μM/% inhib.)
Method: Inhibition of eukaryotic protein synthesis was determined using the Rabbit Reticulocyte Lysate System, Nuclease-Treated from Promega (catalog #L-4960) with slight modifications to the manufacturer's protocol. Compounds were serial diluted in 0.5 mL microcentrifuge tubes by mixing and transferring 50 μL from the highest concentration to 50 μL of water, mixing and transferring 50 μL of this 2-fold dilution to 50 μL of water. This mixing and transferring was repeated so that there are a total of 8 tubes with serial dilutions of compound at 10× the desired screening concentration that are ultimately diluted to 1× by the addition of rabbit reticulocyte luciferase synthesis mixture. Serial dilutions of compounds were added (2.5 μL) to wells in a black round bottom 96-well plate. Water (2.5 μL) was used as a “no inhibitor” control in 4 wells/plate. No RNA control reaction mixture (2 μL; see below) was used as a control in 4 wells/plate for background luminescence. Rabbit reticulocyte luciferase synthesis mixture (22.5 μL; see below) was added to wells with compounds or water mixture and incubated at 30° C. for 90 minutes. Luciferase assay reagent (25 μL) was added with luminescence measured using a BioTek Synergy HTX plate reader. % Inhibition was determined relative to no inhibitor controls.
Rabbit Reticulocyte Luciferase Synthesis Mixture:
• 1,000 μL rabbit reticulocyte lysate • 5.7 μL Luciferase Control RNA (1 μg/μL) • 26 μL complete amino acid mixture • 395 μL water • No RNA Control • 70 μL rabbit reticulocyte lysate • 2 μL complete amino acid mixture • 28 μL water Minimum Inhibitory Concentration (MIC)

E. coli (Ec) = assay: Broth microdilution minimum inhibitory concentration (MIC), CLSI; type: cell-based; conditions: Escherichia coli, growth medium supplemented with sodium bicarbonate, read-out: E. coli + bicarb MIC
Method: A certified BSL-2 laboratory was used for testing. Compounds were evaluated using the broth microdilution minimum inhibitory concentration (MIC) and minimum bactericidal concentration (MBC) assays defined by Clinical and Laboratory Standards Institute (CLSI) in the M26-A guideline against S. aureus (Sa), E. coli (Ec), K. pneumoniae (Kp), A. baumannn (Ab), E. faecalis (Ef) and P. aeruginosa (Pa).
MICs were determined using the Clinical Laboratory and Standards Institute (CLSI) Broth Microdilution Method with slight modification. Clinical and Laboratory Standards Institute (2012). “Methods for dilution antimicrobial susceptibility tests for bacteria that grow aerobically; approved standard, 9th ed. M07-A9 Clinical and Laboratory Standards Institute, Wayne, PA” Serial two-fold dilutions of compounds are prepared in sterile clear round-bottom 96-well plates.
To prepare microdilution trays, two-fold dilutions of antimicrobial agent are prepared in growth medium: Cation-Adjusted Mueller-Hinton Broth (CAMHB), or CAMHB supplemented with sodium bicarbonate (6.25 or 25 mM final concentration prepared from a 1.0M stock solution) or CAMHB supplemented with heat inactivated human serum (Fisher Cat. #BP2657100) 0-50% by adding 200 µL of the highest concentration to be tested (64 μg/mL, for example) in row A, mixing and transferring 100 μL from row A to 100 μL growth medium in row B, then repeating the mixing and transferring through row H of the 96-well plate, discarding the excess […] remaining. This slight modification to the CLSI protocol enables evaluation of MICs for 3 compounds per plate in triplicate, albeit with only 8 compound dilutions (CLSI protocol enables 2 compounds in triplicate with 10 dilutions). Bacterial suspensions are added to a final concentration of 5×10^4 CFU/well by adding 5 μL of a 1:10 dilution of a 0.5 McFarland suspension (1×10^8 CFU/mL) for each bacterium evaluated. Bacterial suspensions were prepared using the growth method described by CLSI. Well-isolated colonies (3-5 from an agar plate) were selected using a sterile loop and used to inoculate a tube containing 4 mL of CAMHB. The cultures are incubated at 35±2° C. until it achieves or exceeds the turbidity of the 0.5 McFarland standard, determined by measuring A600 (usually two to six hours). When growth exceeds a 0.5 McFarland standard, the turbidity is adjusted with broth to be equivalent to a 0.5 McFarland standard.

Structure (SMILES)	IC50 [1] [µM]	IC50 [2] [µM]	MIC (E. coli (Ec)) [µg/mL]
Cc1cc(-n2ccc(NC(=O)N3CCN(C(=O)[C@@](C)(N)CO)CC3)nc2=O)ccc1CN1C[C@@H]2[C@@H](N)[C@@H]2C1 [Compound 1]	< 0.5	≥ 1	
CC(C)(N)C(=O)N1CCN(C(=O)Nc2ccn(-c3cc(CN4C[C@@H]5[C@@H](N)[C@@H]5C4)cc(C(F)(F)F)c3)c(=O)n2)CC1 [Compound 5]	≥ 1	≥ 1	
CC(C)(N)C(=O)N1CCN(C(=O)Nc2ccn(-c3ccc(CN4C[C@@H]5[C@@H](N)[C@@H]5C4)c(C(F)(F)F)c3)c(=O)n2)CC1 [Compound 6]	≥ 1	≥ 1	
CC(C)(N)C(=O)N1CCN(C(=O)Nc2ccn(-c3cc(F)c(CN4C[C@@H]5[C@@H](N)[C@@H]5C4)c(F)c3)c(=O)n2)CC1 [Compound 8]	≥ 1		> 32
CC(C)(N)CC(=O)N1CCN(C(=O)Nc2ccn(-c3ccc(CN4C[C@@H]5[C@@H](N)[C@@H]5C4)c(C(F)(F)F)c3)c(=O)n2)CC1 [Compound 9]	≥ 1		> 32
CCOC(=O)C(c1ccc(-n2ccc(NC(=O)N3CCN(C(=O)C(C)(C)N)CC3)nc2=O)cc1)N1C[C@@H]2[C@@H](N)[C@@H]2C1 (some centres unmarked) [Compound 10]	≥ 1	≥ 1	
C[C@](N)(CO)C(=O)N1CCN(C(=O)Nc2ccn(-c3ccc(CN4C[C@@H]5[C@@H](N)[C@@H]5C4)c(C(F)(F)F)c3)c(=O)n2)CC1 [Compound 11]	≥ 1	≥ 1	
CC(N)(C(=O)N1CCN(C(=O)Nc2ccn(-c3ccc(CN4C[C@@H]5[C@@H](N)[C@@H]5C4)cc3)c(=O)n2)CC1)C(F)(F)F (some centres unmarked) [Compound 15]	≥ 1		> 32
CC(C)(N)C(=O)N1CCN(C(=O)Nc2ccn(-c3ccc(CN4CCC5(CC5N)C4)cc3)c(=O)n2)CC1 (centres unmarked) [Compound 22]	< 0.5	≥ 1	
CC(C)(N)C(=O)N1CCCN(C(=O)Nc2ccn(-c3ccc(CN4C[C@@H]5[C@@H](N)[C@@H]5C4)cc3)c(=O)n2)CC1 [Compound 26]	≥ 1		< 8
NC[C@H](N)C(=O)N1CCN(C(=O)Nc2ccn(-c3ccc(CN4C[C@@H]5[C@@H](N)[C@@H]5C4)cc3)c(=O)n2)CC1 [Compound 43]	≥ 1	≥ 1	
C[C@](N)(CN)C(=O)N1CCN(C(=O)Nc2ccn(-c3ccc(CN4C[C@@H]5[C@@H](N)[C@@H]5C4)cc3)c(=O)n2)CC1 [Compound 44]	≥ 1	≥ 1	
CC(C)(N)C(=O)N1CCN(C(=O)Nc2ccn(-c3ccc(CN4CCC5(CCC(N)CC5)CC4)cc3)c(=O)n2)CC1 [Compound 55]	< 0.5	≥ 1	
CC(C)(N)C(=O)N1CCN(C(=O)Nc2ccn(-c3ccc(CN4C[C@@H]5[C@@H](N)[C@@H]5C4)nc3)c(=O)n2)CC1 [Compound 57]	≥ 1	≥ 1	
NC[C@@H]1[C@H]2CN(Cc3ccc(-n4ccc(NC(=O)N5CCN(C(=O)C6(CN)CC6)CC5)nc4=O)cc3)C[C@@H]12 [Compound 70]	≥ 1		< 8
CC(C)(N)C(=O)N1CCN(C(=O)Nc2ccn(-c3ccc(CN4CCN5CCNCC5C4)cc3)c(=O)n2)CC1 (centres unmarked) [Compound 78]	≥ 1	≥ 1	
CC(C)(N)C(=O)N1CCN(C(=O)Nc2ccn(-c3ccc(CN4C[C@@H]5CN[C@@H]5C4)cc3)c(=O)n2)CC1 [Compound 79]	≥ 1	≥ 1	
CC(C)(N)C(=O)N1CCN(C(=O)Nc2ccn(-c3ccc(CCN4C[C@@H]5[C@@H](N)[C@@H]5C4)cc3)c(=O)n2)CC1 [Compound 84]	≥ 1		> 32
CC(C)(N)C(=O)N1CCN(C(=O)Nc2ccn(-c3cccc(CCN4C[C@@H]5[C@@H](N)[C@@H]5C4)c3)c(=O)n2)CC1 [Compound 86]	≥ 1	≥ 1	
N[C@@H]1[C@H]2CN(CCc3cccc(-n4ccc(NC(=O)N5CCNCC5)nc4=O)c3)C[C@@H]12 [Compound 87]	≥ 1	≥ 1	
N[C@@H]1[C@H]2CN(CCc3cccc(-n4ccc(NC(=O)N5CCN(C(=O)C6(N)CCC6)CC5)nc4=O)c3)C[C@@H]12 [Compound 88]	≥ 1	≥ 1	
CC(C)(N)C(=O)N1CCN(C(=O)Nc2ccn(-c3ccc(CCN4C[C@@H]5[C@H](N)[C@@H]5C4)cc3)c(=O)n2)CC1 [Compound 90]	≥ 1	≥ 1	
CC(C)(N)C(=O)N1CCN(C(=O)Nc2ccn(-c3ccc(CCN4CC5(CC(N)C5)C4)cc3)c(=O)n2)CC1 [Compound 92]	< 0.5	≥ 1	
CC(CN1C[C@@H]2[C@@H](N)[C@@H]2C1)c1ccc(-n2ccc(NC(=O)N3CCN(C(=O)C(C)(C)N)CC3)nc2=O)cc1 (some centres unmarked) [Compound 97]	≥ 1	≥ 1	
CC(Cc1ccc(-n2ccc(NC(=O)N3CCN(C(=O)C(C)(C)N)CC3)nc2=O)cc1)N1C[C@@H]2[C@@H](N)[C@@H]2C1 (some centres unmarked) [Compound 98]	≥ 1	≥ 1	
COc1cc(-n2ccc(NC(=O)N3CCN(C(=O)C(C)(C)N)CC3)nc2=O)ccc1CCN1C[C@@H]2[C@H](N)[C@@H]2C1 [Compound 104]	≥ 1	≥ 1	
CC(C)(N)C(=O)N1CCN(C(=O)Nc2ccn(-c3ccc(C(C)(C)CN4C[C@@H]5[C@@H](CN)[C@@H]5C4)cc3)c(=O)n2)CC1 [Compound 118]	≥ 1	≥ 1	
CC(C)(N)C(=O)N1CCN(C(=O)Nc2ccn(-c3ccc(C(C)(C)CN4CC5CC5(CN)C4)cc3)c(=O)n2)CC1 (centres unmarked) [Compound 119]	≥ 1	≥ 1	
CC(C)(N)C(=O)N1CCN(C(=O)Nc2ccn(-c3cccc(CCN4C[C@H]5CNC[C@H]5C4)c3)c(=O)n2)CC1 [Compound 158]	≥ 1		
CC(C)(N)C(=O)N1CCN(C(=O)Nc2ccn(-c3ccc(CCN4C[C@H]5CNC[C@H]5C4)cc3)c(=O)n2)CC1 [Compound 159]	≥ 1	≥ 1	
